Assay results as given in patent US20130236416A1, “SURFACE MODIFIED COLLOIDAL PARTICLES” (CLEMSON UNIVERSITY, priority 2012, published 2013).
“And” between values parts separate entries of the source, which are not always exact repeats. Equal entries are not always repeated. Where two headings read alike, the source gives them in different places.

Experiments:
P. resinovorans CA10 = assay: Proliferation of P. resinovorans CA10 on carbazole-based media; type: cell-based, Pseudomonas resinovorans CA10; conditions: 96 hour incubation
Experimental: Control growth performed with glucose medium (Δ).
The bioavailability of the hydrophobic metabolites is also critical to understanding metabolic enzymes that bind to them[40]. […] FIG. 3 presents the proliferation of P. resinovorans CA10 with both 9H-carbazole and PA/AC particle based media during a 96 hour incubation.

CARDO complex = target: T1, CARDO complex (Metapseudomonas resinovorans, UniProt Q8G8B6); assay: Temperature dependence of 9H-carbazole conversion by purified CARDO complex; type: biochemical, Pseudomonas resinovorans CA10; conditions: 5° C.
T1 construct: (HIS)6 (C); made in house; host or cells: Escherichia coli BL21(DE3) Rosetta
T1 sequence (Q8G8B6 whole entry, one chain of several): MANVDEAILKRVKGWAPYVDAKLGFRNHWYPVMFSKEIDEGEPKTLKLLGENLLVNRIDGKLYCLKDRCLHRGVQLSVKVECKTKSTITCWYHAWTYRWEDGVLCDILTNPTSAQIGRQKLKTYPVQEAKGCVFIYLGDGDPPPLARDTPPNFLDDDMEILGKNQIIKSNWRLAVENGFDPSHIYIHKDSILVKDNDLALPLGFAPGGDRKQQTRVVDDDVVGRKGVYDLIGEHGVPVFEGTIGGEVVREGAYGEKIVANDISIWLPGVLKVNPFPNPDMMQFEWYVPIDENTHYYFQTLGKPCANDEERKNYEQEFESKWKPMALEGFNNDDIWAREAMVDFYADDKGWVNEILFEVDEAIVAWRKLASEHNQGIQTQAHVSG
Experimental: Purified CARDO complex activity was monitored using a modified enzymatic assay previously described [H. Nojiri, et al. Structure of the terminal oxygenase component of angular dioxygenase, carbazole 1,9a-dioxygenase. Journal of Molecular Biology, 351(2):355-370, 2005.]. The purified enzymes CARDO-F, CARDO-O and CARDO-R were incubated in 20 μL Buffer D (25 mM Tris-HCl pH 7.5 and 1 mM NADH) containing 1 mM carbazole dissolved in DMSO at varying temperatures from 30° C. to 5° C. An aliquot was removed from the reaction at the indicated times and the absorbance of the reaction was determined with a NanoDrop spectrophotometer (Thermo Scientific) at 295 nm.

[1] = cited from earlier work
[2] = Relative fluorescence quantum yield versus reference dye HITCI in methanol; type: physicochemical
Experimental: Absorption spectra were taken using a Perkin-Elmer Lambda 900 UV/VIS/NIR spectrophotometer. Photoluminescence (PL) spectra were collected using a Thermo Oriel xenon arc lamp (Thermo Oriel 66 902) mated with a Thermo Oriel Cornerstone 7 400 1/8m monochromator (Thermo Oriel 7400) and a Horiba Jobin-Yvon MicroHR spectrometer coupled to a Synapse CCD detector. Quantum yields (φ) of the dyes and modified particles were determined relative to the reference dye 1,10,3,3,30,30-hexamethylindotricarbocyanine iodide (HITCI) in methanol, which has a fluorescence quantum yield of φref=0.12, [51,20] employing established procedures.

Which “growth of P. resinovorans CA10 on the substrate-based medium” value (P. resinovorans CA10) does the source give for c1ccc2c(c1)[nH]c1ccccc12 [9H-carbazole] here?
The value was “consistent growth”.

What about the “conversion of carbazole by purified CARDO complex” value (CARDO complex) of the same compound?
Its value is “significantly retarded”.

With CN1C(=CC=CC=CC=CC2=[N+](C)c3ccccc3C2(C)C)C(C)(C)c2ccccc21.[I-] [HITCI, 1,10,3,3,30,30-hexamethylindotricarbocyanine iodide] as the compound, how does the “fluorescence quantum yield φref” value ([1]; reference dye in methanol) read?
Its value is 0.12.

With CC1(C)C(/C=C/C=C/C=C/C=C2\N(CCCCS(=O)(=O)O)c3ccc4ccccc4c3C2(C)C)=[N+](CCCCS(=O)(=O)[O-])c2ccc3ccccc3c21 [ICG, Indocyanine green] as the compound, how does the “relative fluorescence quantum yield φ” value [2] read?
Its value is 0.036±0.002.

And the “yield of triplet formation through S1-T1 intersystem-crossing” value ([1]; free ICG in an aqueous albumin solution)?
Its value is 11%.

What about the “yield of triplet formation through S1-T1 intersystem-crossing” value ([1]; free ICG in water) of the same compound?
Its value is 14%.

What about the “fluorescence quantum yield of free ICG in water” value ([1]; water, ICG concentration ca. 2.7×10^−3 mol·dm^−3) of the same compound?
Its value is “ca. 4×10^−5”.

Which “relative fluorescence quantum yield φ” value [2] does the source give for CC1(C)C(/C=C/C=C/C=C/C=C2/N(CCCN=[N+]=[N-])c3ccc4ccccc4c3C2(C)C)=[N+](CCCCS(=O)(=O)[O-])c2ccc3ccccc3c21 [azICG, 4-(2-(1E,3E,5E,7E)-7-[3-(3-Azidopropyl)-1,1-Dimethyl-1,3-Dihydro-2H-Benzo[e]Indol-2-Ylidene]-1,3,5-Heptatrienyl-1,1-Dimethyl-1H-Benzo[e]Indolium-3-yl)-1-Butanesulfonate] here?
The value was 0.044±0.004 and 0.044.
